Measurements from the NIST ThermoML archive (doi:10.1016/j.fluid.2013.06.050).

What was measured:
[1] = xn = mol fraction of the nth substance listed; details: 298.15 K, 101 kPa, Liquid
[2] = refractive index (Na D-line) (dimensionless); xn = mol fraction of the nth substance listed; details: 298.15 K, 101 kPa, Liquid, Standard Abbe refractometry

OCCCCO [1,4-butanediol] + C[N+](C)(C)CCO.[Cl-]
[1], vibrating tube
Details	mass density [kg/m3]
x2 = 0.25	1061
x2 = 0.28	1067
x2 = 0.34	1073.1

[2]
Details	refractive index
x2 = 0.25	1.4656
x2 = 0.28	1.468
x2 = 0.34	1.4718

CCN(CC)CCO.Cl [2-(diethylamino)ethanol hydrochloride] + OCC(O)CO
[1], vibrating tube
Details	mass density [kg/m3]
x1 = 0.2	1220.4
x1 = 0.25	1205.7
x1 = 0.34	1183.6

[2]
Details	refractive index
x2 = 0.2	1.4812
x2 = 0.25	1.4825
x2 = 0.34	1.4853

CCN(CC)CCO.Cl [2-(diethylamino)ethanol hydrochloride] + OCCO
[1], Vibrating tube method
Details	mass density [kg/m3]
x1 = 0.2	1103.7
x1 = 0.25	1101.8
x1 = 0.28	1100.6

[2]
Details	refractive index
x1 = 0.2	1.4574
x1 = 0.25	1.462
x1 = 0.28	1.465

C[N+](C)(C)CCO.[Cl-] [choline chloride] + OCC(O)CO
[1], vibrating tube
Details	mass density [kg/m3]
x1 = 0.25	1203.5
x1 = 0.34	1192.4
x1 = 0.5	1162.2

[2]
Details	refractive index
x1 = 0.25	1.4818
x1 = 0.34	1.4852
x1 = 0.5	1.491

C[N+](C)(C)CCO.[Cl-] [choline chloride] + OCCO
[1], vibrating tube
Details	mass density [kg/m3]
x1 = 0.28	1117.3
x1 = 0.34	1117.7
x1 = 0.36	1118.4

[2]
Details	refractive index
x1 = 0.28	1.4611
x1 = 0.34	1.465
x1 = 0.36	1.4678

C[P+](c1ccccc1)(c1ccccc1)c1ccccc1.[Br-] [methyltriphenylphosphonium bromide] + OCC(O)CO
[1], Vibrating tube method
Details	mass density [kg/m3]
x1 = 0.2	1289.3
x1 = 0.25	1298
x1 = 0.34	1307.1

[2]
Details	refractive index
x1 = 0.2	1.5597
x1 = 0.25	1.5715
x1 = 0.34	1.5917

C[P+](c1ccccc1)(c1ccccc1)c1ccccc1.[Br-] [methyltriphenylphosphonium bromide] + OCCO
[1], Vibrating tube method
Details	mass density [kg/m3]
x1 = 0.16	1220.2
x1 = 0.2	1233
x1 = 0.25	1250.4

[2]
Details	refractive index
x1 = 0.16	1.5398
x1 = 0.2	1.553
x1 = 0.25	1.5678

C[P+](c1ccccc1)(c1ccccc1)c1ccccc1.[Br-] [methyltriphenylphosphonium bromide] + OCCOCCOCCO
[1], Vibrating tube method
Details	mass density [kg/m3]
x1 = 0.16	1186
x1 = 0.2	1199.2
x1 = 0.25	1216.4

[2]
Details	refractive index
x1 = 0.16	1.5178
x1 = 0.2	1.5263
x1 = 0.25	1.5417
